Experimental data reported in patent publication US20100267561A1, “HERBICIDAL PYRIDAZINONE DERIVATIVES” (priority 2007, published 2010).
Like-named read-outs stand apart in the source and are kept apart here.

Legend:
Test in all cases: Test B pre-/postemergence plant response
Type in all cases: in vivo
[1] = tested on: Russian thistle (Salsola iberica); details: Preemergence, scale 0 to 100
How it was run: (§1)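 Visual scoring from 0 (no effect) to 100 (complete control) against untreated controls was done 13 to 15 days after greenhouse treatment. Chemicals were formulated in a surfactant-containing non-phytotoxic solvent and applied to soil preemergence or to 1- to 4-leaf (2-18 cm) plants postemergence.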

[2] = tested on: woolly cupgrass (Eriochloa villosa); details: for Cupgrass, Woolly plant response rating: 8 g ai/ha; for pest or weed control at 16 g/ha / pest or weed control at 31 g/ha / pest or weed control at 62 g/ha: Eriochloa villosa, read-out: Plant response rating, Cupgrass, Woolly; for pest or weed control at 16 g/ha: 16 g ai/ha; for pest or weed control at 31 g/ha: 31 g ai/ha; for pest or weed control at 62 g/ha: 62 g ai/ha
How it was run: as §1

[3] = tested on: common ragweed (Ambrosia elation); details: for Ragweed plant response rating: 8 g ai/ha; for pest or weed control at 16 g/ha / pest or weed control at 31 g/ha / pest or weed control at 62 g/ha: Ambrosia, read-out: Plant response rating, Ragweed; for pest or weed control at 16 g/ha: 16 g ai/ha; for pest or weed control at 31 g/ha: 31 g ai/ha; for pest or weed control at 62 g/ha: 62 g ai/ha
How it was run: as §1

corn (Zea mays) = details: for Corn plant response rating: 8 g ai/ha; for Corn plant response rating (crop injury, 0 = no effect, 100 = complete kill) at 16 g/ha / Corn plant response rating (crop injury, 0 = no effect, 100 = complete kill) at 31 g/ha / Corn plant response rating (crop injury, 0 = no effect, 100 = complete kill) at 62 g/ha: Zea mays; for Corn plant response rating (crop injury, 0 = no effect, 100 = complete kill) at 16 g/ha: 16 g ai/ha; for Corn plant response rating (crop injury, 0 = no effect, 100 = complete kill) at 31 g/ha: 31 g ai/ha; for Corn plant response rating (crop injury, 0 = no effect, 100 = complete kill) at 62 g/ha: 62 g ai/ha
How it was run: as §1

[4] = tested on: large crabgrass (Digitaria sanguinalis); details: for Crabgrass, Large plant response rating: 8 g ai/ha; for pest or weed control at 16 g/ha / pest or weed control at 31 g/ha / pest or weed control at 62 g/ha: Digitaria sanguinalis, read-out: Plant response rating, Crabgrass, Large; for pest or weed control at 16 g/ha: 16 g ai/ha; for pest or weed control at 31 g/ha: 31 g ai/ha; for pest or weed control at 62 g/ha: 62 g ai/ha
How it was run: as §1

[5] = tested on: johnsongrass (Sorghum halepense); details: for Johnsongrass plant response rating: 8 g ai/ha; for pest or weed control at 16 g/ha / pest or weed control at 31 g/ha / pest or weed control at 62 g/ha: Sorghum halepense, read-out: Plant response rating, Johnsongrass; for pest or weed control at 16 g/ha: 16 g ai/ha; for pest or weed control at 31 g/ha: 31 g ai/ha; for pest or weed control at 62 g/ha: 62 g ai/ha
How it was run: as §1

[6] = tested on: velvetleaf (Abutilon theophrasti); details: for Velvetleaf plant response rating: 8 g ai/ha; for pest or weed control at 16 g/ha: 16 g ai/ha; for pest or weed control at 62 g/ha: 62 g ai/ha
How it was run: as §1

[7] = post-emergence, Postemergence, scale 0 to 100
[8] = post-emergence, Postemergence, scale 0 to 100, 0 no effect, 100 complete control
[9] = pre-emergence, Preemergence, scale 0 to 100 (0 no effect, 100 complete control)
[10] = pre-emergence, Preemergence, 0 to 100 scale, 0 no effect, 100 complete control
[11] = pre-emergence, Preemergence, scale 0 to 100

Question: What does the source list for `CCc1c(C)c(-c2ccc(Cl)cc2)nn1-c1c(O)cnn(C)c1=O` [Compound 26, 4-[3-(4-chlorophenyl)-5-ethyl-4-methyl-1H-pyrazol-1-yl]-5-hydroxy-2-methyl-3(2H)-pyridazinone]?
Answer: Plant response rating, Russian Thistle ([1]; 62 g ai/ha): 0; Russian Thistle plant response rating ([1]; 8 g ai/ha): 0; Cupgrass, Woolly plant response rating ([2]; postemergence, 0-100 scale): 85; pest or weed control at 16 g/ha [2, 7]: 95%; pest or weed control at 31 g/ha [2, 8]: 98%; pest or weed control at 62 g/ha [2, 8]: 98%; pest or weed control at 16 g/ha [2, 9]: 70%; pest or weed control at 31 g/ha [2, 10]: 85%; pest or weed control at 62 g/ha [2, 11]: 100%; Cupgrass, Woolly plant response rating ([2]; Preemergence, scale 0 to 100): 20; Ragweed plant response rating ([3]; postemergence, 0-100 scale): 0; pest or weed control at 16 g/ha [3, 7]: 0%; pest or weed control at 31 g/ha [3, 8]: 0%; pest or weed control at 62 g/ha [3, 8]: 0%; pest or weed control at 16 g/ha [3, 9]: 0%; pest or weed control at 31 g/ha [3, 10]: 0%; pest or weed control at 62 g/ha [3, 11]: 0%; Ragweed plant response rating ([3]; Preemergence, scale 0 to 100): 0; Corn plant response rating (corn (Zea mays); postemergence, 0-100 scale): 0; Corn plant response rating (corn (Zea mays); Preemergence, scale 0 to 100): 15; Corn plant response rating (crop injury, 0 = no effect, 100 = complete kill) at 16 g/ha (corn (Zea mays); [7]): 0%; Corn plant response rating (crop injury, 0 = no effect, 100 = complete kill) at 31 g/ha (corn (Zea mays); [8]): 100%; Corn plant response rating (crop injury, 0 = no effect, 100 = complete kill) at 62 g/ha (corn (Zea mays); [8]): 100%; Corn plant response rating (crop injury, 0 = no effect, 100 = complete kill) at 16 g/ha (corn (Zea mays); [9]): 30%; Corn plant response rating (crop injury, 0 = no effect, 100 = complete kill) at 31 g/ha (corn (Zea mays); [10]): 70%; Corn plant response rating (crop injury, 0 = no effect, 100 = complete kill) at 62 g/ha (corn (Zea mays); [11]): 98%; Crabgrass, Large plant response rating ([4]; postemergence, 0-100 scale): 45; pest or weed control at 16 g/ha [4, 7]: 60%; pest or weed control at 31 g/ha [4, 8]: 80%; pest or weed control at 62 g/ha [4, 8]: 80%; pest or weed control at 16 g/ha [4, 9]: 65%; pest or weed control at 31 g/ha [4, 10]: 70%; pest or weed control at 62 g/ha [4, 11]: 95%; Crabgrass, Large plant response rating ([4]; Preemergence, scale 0 to 100): 0; Johnsongrass plant response rating ([5]; postemergence, 0-100 scale): 0; Johnsongrass plant response rating ([5]; Preemergence, scale 0 to 100): 0; pest or weed control at 16 g/ha [5, 7]: 0%; pest or weed control at 31 g/ha [5, 8]: 20%; pest or weed control at 62 g/ha [5, 8]: 20%; pest or weed control at 16 g/ha [5, 9]: 0%; pest or weed control at 31 g/ha [5, 10]: 0%; pest or weed control at 62 g/ha [5, 11]: 50%; Velvetleaf plant response rating ([6]; postemergence, 0-100 scale): 0; pest or weed control at 16 g/ha ([6]; Abutilon theophrasti, post-emergence, Postemergence, scale 0 to 100, read-out: Plant response rating, Velvetleaf): 0%; pest or weed control at 62 g/ha ([6]; Abutilon theophrasti, post-emergence, Postemergence, scale 0 to 100, 0 no effect, 100 complete control, read-out: Plant response rating, Velvetleaf): 0%; pest or weed control at 16 g/ha ([6]; Abutilon theophrasti, pre-emergence, Preemergence, scale 0 to 100 (0 no effect, 100 complete control), read-out: Plant response rating, Velvetleaf): 0%; pest or weed control at 31 g/ha ([6]; Abutilon theophrasti, pre-emergence, Preemergence, 31 g ai/ha, 0 to 100 scale, 0 no effect, 100 complete control, read-out: Plant response rating, Velvetleaf): 0%; pest or weed control at 62 g/ha ([6]; Abutilon theophrasti, pre-emergence, Preemergence, scale 0 to 100, read-out: Plant response rating, Velvetleaf): 0%; Velvetleaf plant response rating ([6]; Preemergence, scale 0 to 100): 0
